According to patent US20240172750A1, “5-Fluoro-4-Imino-3-Methyl-1-Tosyl-3,4-Dihydropyrimidin-2(1H)-One for Controlling Plant Diseases” (Adama Makhteshim Ltd., priority 2021, published 2024):

Experiments:
[1] = tested on: Pseudoperonospora cubensis (downy mildew); test: Glasshouse trial, downy mildew in cucumber, foliar treatment; type: in vivo; details: cucumber (Bosco); 250 OD at 100, 125, 150, 200 g ai/ha, 3 applications; 21 DA-C
Protocol: The trial was carried out in a commercial glasshouse in Vittoria (RG)—Sicily region (Southern Italy) to evaluate the efficacy against Pseudoperonospora cubensis (downy mildew) and the selectivity on cucumber (Bosco variety) of ADF-16 250 OD at 100, 125, 150 and 200 g ai/ha in comparison to AIRONE PIU at 630 g ai/ha and EQUATION PRO at 21 g ai/ha.
Each plot (2 m×5 m, 2 rows per plot) consisted of at least 10 plants and 4 replicates per treatment were carried out. The soil used for the trial was a mix of peat and perlite. 3 applications were carried out as follows: A: early curative (disease symptoms lower than 5%), B: 7-10 days from A and C: 7-10 days from B. The corresponding treatments dates were: 16 Nov. 2020 (BBCH 64), 23 Nov. 2020 (BBCH 65) and 30th of November (BBCH 67)
The application was carried out with a backpack sprayer OleomacSP126 and a water volume of 1000 L/ha.
Phytotoxicity, if any, was assessed 7, 14 and 21 days form each application and starting from the first symptoms the percentage of affected leaf area (% severity) as well as the percentage of affected leaves (% incidence) was measured.

[2] = tested on: M. fijiensis; test: Black sigatoka on banana plants in climatic chamber; type: in vivo, Mycosphaerella fijiensis
Protocol: The banana plants used for this experimentation were obtained from vitro-plants Cavendish type furnished by VITROPIC S.A. (France). One-month old plants (2 fully deployed leaves: F2 (oldest leaf) and F1 and the cigar leaf) are treated (see details in the table below) were inoculated with a calibrated mycelial seed-inoculum of a mixture of 4 M. fijiensis strains (for each treatment, 3 repetitions (banana plants) are considered). Banana leaves of each plant were treated on their upper (adaxial) and lower (abaxial) face and then incubated for one hour under a laminar flow in order to let dry the fungicide droplets. After inoculation, banana plants were transferred in climatic chamber: 25° C. day/18° C. night, photoperiod of 16 h light/8 h dark and 100% Relative Humidity. From 28 days to 56 days post inoculation (dpi) each banana plants is observed and the disease intensity severity (DSI: Disease Severity Index) is evaluated over time in order to determine the AUDPC (Area Under Disease Progress Curve)—Table 12, and the fungicidal efficacy expressed in percent of the untreated control—Table 13.

[3] = tested on: Colletotrichum dematium var. truncatum; test: Pot trial, Colletotrichum dematium var. truncatum on soybean; type: in vivo; details: 50-200 g ai/ha
Protocol: (§2) The inoculation of Corynespora cassiicola and Colletotrichum dematium var. truncatum is done with infected leaves from the field few days after the application.
(§3) To test for fungicidal control against the two necrotrophic diseases, the soybean plants, grown in pots, are sprayed at V2 with each of the above treatments. 5 pots with 3 soybean plants each are considered, each treatment counts for 4 replicates.
(§4) Between 14 and 21 days from the inoculation the severity (%) of the infection is assessed.

[4] = tested on: Bobwhite quail; test: Ecotoxicity: birds, acute; type: in vivo
Source text: (§1) The ecotoxicity of flumetylsulforim was investigated in numerous studies in accordance with the strict requirements for the approval of active substances in the EU.

[5] = tested on: Bobwhite quail; test: Ecotoxicity: birds, reproduction; type: in vivo
Source text: as §1

[6] = tested on: Rat; test: Ecotoxicity: mammals, acute; type: in vivo
Source text: as §1

[7] = tested on: Rabbit; test: Ecotoxicity: mammals, long-term; type: in vivo
Source text: as §1

[8] = Ecotoxicity: fish, acute; details: in vivo, Rainbow trout
Source text: as §1

[9] = tested on: Daphnia magna; test: Ecotoxicity: aquatic invertebrates, long-term; type: in vivo
Source text: as §1

[10] = Ecotoxicity: algae, long-term; type: in vivo; details: in vivo, Green alga
Source text: as §1

[11] = tested on: Green alga; test: Ecotoxicity: algae, long-term; type: in vivo; details: wheats and barley at 2 × 100 g/ha
Source text: as §1

[12] = tested on: Honeybee; test: Ecotoxicity: honeybee, acute oral; type: in vivo
Source text: as §1

[13] = tested on: Honeybee; test: Ecotoxicity: honeybee, chronic oral; type: in vivo
Source text: as §1

[14] = tested on: Honeybee; test: Ecotoxicity: honeybee, chronic larvae; type: in vivo
Source text: as §1

[15] = tested on: Parasitoid wasp; test: Ecotoxicity: non-target arthropods, reproduction; type: in vivo
Source text: as §1

[16] = tested on: Predatory mite; test: Ecotoxicity: non-target arthropods, reproduction; type: in vivo; details: wheats and barley at 2 × 100 g/ha
Source text: as §1

[17] = tested on: Eisenia fetida; test: Ecotoxicity: earthworms, long-term; type: in vivo
Source text: as §1

[18] = tested on: Carrot; test: Non-target terrestrial plants, seedling emergence; type: in vivo
Source text: as §1

[19] = tested on: Common oat; test: Non-target terrestrial plants, seedling emergence; type: in vivo
Source text: as §1

[20] = tested on: Cucumber; test: Non-target terrestrial plants, seedling emergence; type: in vivo
Source text: as §1

[21] = tested on: Maize; test: Non-target terrestrial plants, seedling emergence; type: in vivo
Source text: as §1

[22] = tested on: Oil seed rape; test: Non-target terrestrial plants, seedling emergence; type: in vivo
Source text: as §1

[23] = tested on: Onion; test: Non-target terrestrial plants, seedling emergence; type: in vivo
Source text: as §1

[24] = tested on: Ryegrass; test: Non-target terrestrial plants, seedling emergence; type: in vivo
Source text: as §1

[25] = tested on: Soybean; test: Non-target terrestrial plants, seedling emergence; type: in vivo
Source text: as §1

[26] = tested on: Sugar beet; test: Non-target terrestrial plants, seedling emergence; type: in vivo
Source text: as §1

[27] = tested on: Sunflower; test: Non-target terrestrial plants, seedling emergence; type: in vivo
Source text: as §1

[28] = tested on: Microsphaera diffusa (powdery mildew)
Protocol: Microsphaera diffusa (powdery mildew) is artificially inoculated by spraying the inoculum on the leaves few days after the application.
To test for fungicidal control of Microsphaera diffusa (powdery mildew), the soybean plants, grown in pots, are sprayed at V2 with each of the above treatments. 5 pots with 3 soybean plants each are considered, each treatment counts for 4 replicates.
Between 14 and 21 days from the inoculation, the severity (%) of the infection is assessed.

[29] = tested on: Ramularia areola
Protocol: The objective of the trial is to assess the fungicidal effect of ADF-16 against Ramularia areola on cotton, compared to an untreated control and a reference product.
ADF-16 is tested at different doses, namely at 50, 100, 150 and 200 g ai/ha as depicted in the table below.
Ramularia areola is artificially inoculated by spraying the conidia on the plants, previously sprayed with the fungicide.
To test for fungicidal control of Ramularia areola, the cotton plants, grown in pots, are sprayed at first true leaf fully open with each of the above treatments. 5 pots with 3 cotton plants each are considered, each treatment counts for 4 replicates.
Between 25 and 30 days from the inoculation the severity (%) of the infection is assessed.

[30] = tested on: Corynespora cassiicola
Protocol: as §2, §3, §4

[31] = wheats and barley at 2 × 100 g/ha

Cc1ccc(S(=O)(=O)n2cc(F)c(=N)n(C)c2=O)cc1 [compound of formula I, 5-fluoro-4-imino-3-methyl-1-tosyl-3,4-dihydropyrimidin-2(1H)-one]
control of the disease (downy mildew) [1]: significant control of the disease
control of Mycosphaerella fijiensis in banana (conclusion) [2]: efficiently controlling
control of Colletotrichum dematium var. truncatum [3]: effectively controls
LD50 [4]: LD50 > 2000 mg/kg bw
NOED [5]: NOED > 67.8 mg/kg bw/d
Risk at current use pattern [5, 31]: Acceptable
LD50 [6]: LD50 > 2000 mg/kg bw
Risk at current use pattern [6, 31]: Acceptable
NOED [7]: NOED = 15 mg/kg bw/d
Risk at current use pattern [7, 31]: Acceptable
LC50 [8]: 5.41 µg/mL
NOEC [9]: NOEC = 0.32 mg/L
Risk at current use pattern [9, 31]: Acceptable
EC50 [10]: > 10 µg/mL
Risk at current use pattern [11]: Acceptable
LD50 [12]: LD50 > 3.727 μg/bee
LD50 [13]: LD50 = 16.0 μg/bee/d
NOEC [14]: NOEC > 250 mg/kg diet
Risk at current use pattern [14, 31]: Acceptable
LR50 [15]: LR50 > 189 g/ha
Risk at current use pattern [15, 31]: Acceptable
Risk at current use pattern [16]: Acceptable
NOEC [17]: NOEC = 309 mg/kg dws
Risk at current use pattern [17, 31]: Acceptable
ER50 [18]: ER50 > 189 g/ha
Risk at current use pattern [18, 31]: Acceptable
ER50 [19]: ER50 > 189 g/ha
Risk at current use pattern [19, 31]: Acceptable
ER50 [20]: ER50 > 189 g/ha
Risk at current use pattern [20, 31]: Acceptable
ER50 [21]: ER50 > 189 g/ha
Risk at current use pattern [21, 31]: Acceptable
ER50 [22]: ER50 > 189 g/ha
Risk at current use pattern [22, 31]: Acceptable
ER50 [23]: ER50 > 189 g/ha
Risk at current use pattern [23, 31]: Acceptable
ER50 [24]: ER50 > 189 g/ha
Risk at current use pattern [24, 31]: Acceptable
ER50 [25]: ER50 > 189 g/ha
Risk at current use pattern [25, 31]: Acceptable
ER50 [26]: ER50 > 189 g/ha
Risk at current use pattern [26, 31]: Acceptable
ER50 [27]: ER50 > 189 g/ha
Risk at current use pattern [27, 31]: Acceptable
phytotoxicity ([28]; in vivo): no significant phytotoxicity
control of Microsphaera diffusa ([28]; soybean, 50-200 g ai/ha): effectively controls
control of Ramularia areola ([29]; cotton, 50-200 g ai/ha): effectively controls
phytotoxicity ([29]; in vivo): no significant phytotoxicity
phytotoxicity ([30]; in vivo): no significant phytotoxicity
control of Corynespora cassiicola ([30]; soybean, 50-200 g ai/ha): effectively controls
